Experimental data: PMC9571628 (Molecules, 2022)

How the values were obtained:
Ugt1a7 mRNA = assay: qRT-PCR of Ugt1a7 mRNA in liver and intestines of rats after multiple doses; format: in vivo; details: multiple doses of SOR (100 mg/kg, seven days)
Procedure: The qRT-PCR analysis was used to measure mRNA levels of Ugt1a7 in the liver and intestines of rats. Total RNA was isolated from frozen liver and intestine samples using the TRNzol Universal as per the manufacturer’s instructions. A Bio Tek Epoch (Bio Tek Instruments, Inc., Winooski, VT, USA) was used to quantify the concentration and purity of the total RNA based on the ratio of the absorbance between 260 and 280 nm. RNA samples of 1 μg of were converted to complementary (cDNA) using the FastKing RT Kit. The real-time PCR assays were performed using a two-step amplification method according to the manufacturer’s recommendations in a SLAN-96S Real-Time PCR system (Shanghai Hongshi Medical Technology Co., Ltd. Shanghai, China). The PCR cycling conditions were as follows: 95 °C for 15 min, followed by 40 cycles of 95 °C for 10 s and 60 °C for 32 s. The sequences of primers are listed in Table 6. β-actin was used as an internal control.

[1] = Stability of QC samples in rat plasma under different storage and processing conditions; format: physicochemical; details: for Accuracy (RE%) / Mean ± SD concentration found: rat plasma, n = 6
Procedure: The stability of QC samples in rat plasma was tested in six replicates at three concentration levels exposed to different storage and processing conditions: autosampler for 6 h after processing, room temperature for 4 h, −80 °C for 30 days, three freeze–thaw cycles (−80 °C to room temperature).

[2] = set-up: method as in PMID 27561659; details: following oral administration of SOR; cited from earlier work
[3] = set-up: method as in earlier work; details: co-administration of neomycin; cited from earlier work
[4] = with metformin; cited from earlier work
human UGT enzymes = test system: human UGT enzymes; set-up: method as in PMID 28065859; details: in vitro studies; cited from earlier work
[5] = Pharmacokinetic interaction study between SOR and DAPA in rats (oral gavage, plasma by UPLC-MS/MS);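 further: parameters derived by non-compartmental analysis of plasma concentration–time data, with analyte levels measured by UPLC-MS/MS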
Procedure: Analytes were quantified using Ultra-Performance Liquid Chromatography-Tandem Mass Spectrometry (UPLC-MS/MS) which consisted of an LC-30A ultra-performance liquid chromatography (Shimadzu, Kyoto, Japan) and Sciex Triple Quad 5500 tandem triple quadrupole mass spectrometer (AB Sciex, Framingham, MA, USA). Chromatographic separation was performed using an XSelect HSS T3 column (2.1 mm × 100 mm, 2.5 μm, Waters, Milford, MA, USA) at 40 °C by gradient elution. The mobile phase consisted of water with 0.1% formic acid and 5 mM ammonium acetate (phase A) and acetonitrile (phase B), and the gradient elution procedure was as follows: 0–0.5 min, 60–90% B; 0.5–3 min, 90% B; 3–3.1 min, 90–60% B; and 3.1–4 min, 60% B. The injection volume was 5 μL.
A volume of 25 µL plasma samples, 2.5 µL IS mixed working solution, and 150 μL methyl tertbutyl ether was added, then vortex-mixed for 1 min. The mixture was centrifuged at 12,000× g for 10 min. The organic phase was transferred to a new centrifuged tube and evaporated to dryness under a stream of nitrogen at room temperature. The dried samples were redissolved with 100 μL of 50% acetonitrile and briefly vortexed for 1 min, then 5 μL was injected into the UPLC-MS/MS for analysis.
Adult male Sprague-Dawley (SD) rats weighing 230 ± 30 g were provided by Beijing Weitong Lihua Experimental Animal Technology Co., Ltd. (Beijing, China). The license number is SCXK (Beijing) 2016–0011. All experimental procedures for this study were reviewed and approved by the Animal Ethics Committee of Hebei General Hospital (Shijiazhuang, China) (No. 2022072). The rats were adapted to the standard laboratory conditions (12 h dark–light cycle, temperature at approximately 23 ± 2 °C, relative humidity of 50 ± 10%) for a week. All the rats were given access to water freely, while the diet was prohibited for 12 h before administration.
Twenty-four healthy rats were randomly divided into four groups (n = 6 in each group). […] Blood samples were then centrifuged at 3500× g for 10 min at 4 °C, and the supernatant was transferred to another centrifuged tube, then stored in a −80 °C freezer until analysis.
DAS 2.1.1 Software (Mathematical Pharmacology Professional Committee of China, Shanghai, China) was used to calculate pharmacokinetic parameters with non-compartmental analysis. The pharmacokinetic analysis included AUC (area under the concentration–time curve), Cmax (maximum plasma concentration), Tmax (time to maximum plasma concentration), t1/2 (time required to eliminate half of plasma drug concentration), CLz/F (clearance of drug plasma volume per time unit), Vz/F (apparent volume of distribution), and MRT (mean residence time). SPSS 25.0 statistical software (SPSS Inc., Chicago, IL, USA) was used to statistically analyze the above-mentioned pharmacokinetic parameters. Statistical comparisons of the experimental and control groups were conducted using a nonparametric rank-sum test or t-test, depending on the data type; p < 0.05 was considered statistically significant.

[6] = Autosampler for 6 h, nominal 10 ng/mL
[7] = Autosampler for 6 h, nominal 1500 ng/mL
[8] = Autosampler for 6 h, nominal 3750 ng/mL
[9] = Freeze–thaw stability for three times, nominal 10 ng/mL
[10] = Freeze–thaw stability for three times, nominal 1500 ng/mL
[11] = Freeze–thaw stability for three times, nominal 3750 ng/mL
[12] = Room temperature for 4 h, nominal 10 ng/mL
[13] = Room temperature for 4 h, nominal 1500 ng/mL
[14] = Room temperature for 4 h, nominal 3750 ng/mL
[15] = −80 °C for 30 days, nominal 10 ng/mL
[16] = −80 °C for 30 days, nominal 1500 ng/mL
[17] = −80 °C for 30 days, nominal 3750 ng/mL
[18] = SOR 100 mg/kg oral, alone, n = 6
[19] = with multiple doses of DAPA vs control group (SOR alone)

CNC(=O)c1cc(Oc2ccc(NC(=O)Nc3ccc(Cl)c(C(F)(F)F)c3)cc2)ccn1 [SOR, Sorafenib]
downregulation of mRNA expression of Ugt1a7 in the intestines (Ugt1a7 mRNA; rat intestines): ~32.09%
downregulation of mRNA expression of Ugt1a7 in the liver (Ugt1a7 mRNA; rat liver): ~32.50%
Accuracy (RE%) [1, 6]: 0.9%
Mean ± SD concentration found [1, 6]: 10.09 ± 0.53 ng/mL
Accuracy (RE%) [1, 7]: 2.6%
Mean ± SD concentration found [1, 7]: 1538.33 ± 36.56 ng/mL
Accuracy (RE%) [1, 8]: −0.9%
Mean ± SD concentration found [1, 8]: 3716.67 ± 66.23 ng/mL
Accuracy (RE%) [1, 9]: −1.7%
Mean ± SD concentration found [1, 9]: 9.84 ± 0.34 ng/mL
Accuracy (RE%) [1, 10]: 3.3%
Mean ± SD concentration found [1, 10]: 1550.00 ± 12.65 ng/mL
Accuracy (RE%) [1, 11]: −4.0%
Mean ± SD concentration found [1, 11]: 3601.67 ± 164.00 ng/mL
Accuracy (RE%) [1, 12]: 6.8%
Mean ± SD concentration found [1, 12]: 10.68 ± 0.55 ng/mL
Accuracy (RE%) [1, 13]: −3.4%
Mean ± SD concentration found [1, 13]: 1448.33 ± 18.35 ng/mL
Accuracy (RE%) [1, 14]: −5.8%
Mean ± SD concentration found [1, 14]: 3533.33 ± 66.23 ng/mL
stability in rat plasma ([1]; autosampler for 6 h, room temperature for 4 h, −80 °C for 30 days, three cycles of freezing and thawing (−80 °C to room temperature)): stable
Accuracy (RE%) [1, 15]: 2.0%
Mean ± SD concentration found [1, 15]: 10.20 ± 0.39 ng/mL
Accuracy (RE%) [1, 16]: 2.2%
Mean ± SD concentration found [1, 16]: 1533 ± 40.33 ng/mL
Accuracy (RE%) [1, 17]: −4.2%
Mean ± SD concentration found [1, 17]: 3593.33 ± 142.22 ng/mL
time at which maximum plasma concentrations are reached [2]: approximately 3 h
decrease of SOR exposure [3]: 54%
change of exposure to SOR [4]: halved
inhibition of human UGT enzymes (human UGT enzymes): one of the most powerful inhibitors
AUC(0-t) [5, 18]: 62,701.33 ± 16,697.65 μg/L × h
Cmax [5, 18]: 1547.87 ± 136.94 ng/mL
shape of pharmacokinetic curve of SOR ([5]; after 72 h of SOR gavage): second absorption peak
AUC(0-inf) ([5]; male, Sprague-Dawley, rat, plasma, po, 100 mg/kg, AUC0–∞, SOR 100 mg/kg oral, alone, n = 6): 63700 ng·h/mL
CL/F ([5]; male, Sprague-Dawley, rat, plasma, po, 100 mg/kg, CLz/F, SOR 100 mg/kg oral, alone, n = 6): 28.2 mL/min/kg
MRT last ([5]; male, Sprague-Dawley, rat, plasma, po, 100 mg/kg, MRT0-t, SOR 100 mg/kg oral, alone, n = 6): 47.1 ± 9.48 h
MRT inf ([5]; male, Sprague-Dawley, rat, plasma, po, 100 mg/kg, MRT0–∞, SOR 100 mg/kg oral, alone, n = 6): 48.7 ± 10.5 h
Tmax ([5]; male, Sprague-Dawley, rat, plasma, po, 100 mg/kg, Tmax, SOR 100 mg/kg oral, alone, n = 6): 7.5 ± 0.55 h
Vd/F ([5]; male, Sprague-Dawley, rat, plasma, po, 100 mg/kg, Vz/F, SOR 100 mg/kg oral, alone, n = 6): 37.4 ± 9.78 L/kg
half-life ([5]; male, Sprague-Dawley, rat, plasma, po, 100 mg/kg, t1/2z, SOR 100 mg/kg oral, alone, n = 6): 17.5 ± 5.65 h
change of t1/2z, MRT0–t and MRT0–∞ of SOR between the groups ([5]; with multiple doses of DAPA vs SOR alone): no statistically significant changes
decrease of AUC0–t of SOR [5, 19]: 50.5%
decrease of AUC0–∞ of SOR [5, 19]: 46.2%
decrease of Cmax of SOR [5, 19]: 41.6%
